Values joined by “and” are separate entries in the source; they are usually repeats but may differ in a detail not shown here. Identical values can stand only once. “Also recorded” adds a separate entry of the source. Like-named read-outs stand apart in the source and are kept apart here.
Tests used:
H7N9 = system: H7N9; set-up: species or system human patients; conditions: human, in vivo
[1] = system: Influenza A H1N1pdm2009 (A/GZ/GIRD07/09, H1N1); set-up: species or system BALB/C mice; conditions: mouse, in vivo
[2] = system: Influenza A H1N1pdm2009 (A/GZ/GIRD07/09, H1N1); set-up: species or system BALB/C mice; conditions: mouse, in vivo; remark: listed apart in the source
[3] = system: Influenza A H1N1pdm2009 (A/GZ/GIRD07/09, H1N1); set-up: species or system BALB/C mice; conditions: mouse, in vivo; remark: listed apart in the source
[4] = system: Influenza B (B/Guangzhou/GIRD08/09); set-up: species or system BALB/C mice; conditions: mouse, in vivo
[5] = mouse, in vivo
influenza A/H1N1 = conditions: cited from earlier work; for weight loss and mortality: single intramuscular injection 10 mg/kg, mice infected with influenza A/H1N1
influenza [6] = conditions: given as late as 60 h after infection; cited from earlier work
[7] = system: influenza A (H1N1) 2009 virus; conditions: cited from earlier work
[8] = cited from earlier work
influenza virus = conditions: repeated intravenous injections for 5 days, patients at high risk of complications; cited from earlier work
influenza [9] = conditions: cited from earlier work
[10] = oral administration; no reference given; cited from earlier work

With `CC(=O)N[C@H]1[C@H]([C@H](O)[C@H](O)CO)OC(C(=O)O)=C[C@@H]1N=C(N)N` [Zanamivir] the Clinical outcome (H7N9) was “Death; also recorded: Survival”.

For `CCC(CC)[C@H](NC(C)=O)[C@@H]1[C@H](O)[C@@H](C(=O)O)C[C@H]1N=C(N)N` [Peramivir], the “efficacy of delayed treatment (survival rate) vs virus group” value [1] was “efficacy was observed”, the “efficacy of delayed treatment (survival)” value [1] was “no efficacy” and the “mean number of days to death” value [1] was greater than 15 days. For the same molecule, the survival rate [1] was 100% and 80% and 70%, the “survival rate vs virus group” value [1] was “enhanced” and the “difference in weight loss suppression compared with the virus group” value ([1]; iv, 60 mg/kg) was “about 9%”. For the same molecule, the “weight loss suppression compared with the virus group” value ([1]; iv, 60 mg/kg) was “significant weight loss suppression”, the “lung virus titer vs virus group” value [2] was “reduced lung virus titers” and the “lung index vs virus group” value [3] was “improvement”. For the same molecule, the “lung index vs virus group” value [4] was “improved”, the Clinical outcome (H7N9) was “Survival; also recorded: Death” and the “treatment efficacy in H7N9 patients” value (H7N9) was “a degree of treatment efficacy; also recorded: some treatment efficacy”. The “concentration in the blood of virus-infected mice compared with normal mice” value [5] was “no significant differences”, the prevention of death (influenza A/H1N1; single intramuscular dose 10 mg/kg administered at 24 or 48 h p.i.) was “prevented death” and the “weight loss and mortality” value (influenza A/H1N1) was “significantly reduces weight loss and mortality”. The prevention of death (influenza [6]) was “able to prevent death”, the “survival rates and viral titers in the lungs” value ([7]; 40 mg/kg·d i.v. QD x 20 days starting at 24, 48 or 72 h p.i.) was “increased survival rates and reduced viral titers in the lungs” and the drug-related toxicity ([7]; repeated intravenous injections 40 mg/kg·d for 20 days) was “no obvious signs of drug-related toxicity”. For the same molecule, the “toxicity or side effects” value ([8]; 1000 mg/kg·d administered for 5 days) was “no signs of toxicity or side effects”, the “toxicity or side effects” value ([8]; doses as high as 3000 mg/kg·d administered as a single dose) was “no signs of toxicity or side effects” and the clinical effect (influenza virus) was “beneficial effects”. The safety (influenza virus) was “no major safety issues”, the “in vitro activity relative to Oseltamivir carboxylate and Zanamivir” value (influenza [9]) was “comparable to, or better than” and the oral bioavailability [10] was no more than 3%.

For `CCOC(=O)C1=C[C@@H](OC(CC)CC)[C@H](NC(C)=O)[C@@H](N)C1` [Oseltamivir], the “efficacy of delayed treatment (survival)” value [1] was “no efficacy”, the “lung virus titer vs virus group” value [2] was “reduced” and the Clinical outcome (H7N9) was “Survival; also recorded: Death”. The “weight loss and mortality” value (influenza A/H1N1) was “no efficacy”.
